PMC5399312 (Journal of Experimental & Clinical Cancer Research : CR, 2017)

Legend:
HK1 = target: T1, HK1 (Homo sapiens, UniProt P19367); assay: In vitro enzyme inhibition assay (G6P-DH coupled, NADH 340 nm); type: biochemical; settings: recombinant HK1
T1 construct: purchased Shanghai yuanye Bio-Technology Co., Ltd (China)
T1 sequence (P19367 1-917): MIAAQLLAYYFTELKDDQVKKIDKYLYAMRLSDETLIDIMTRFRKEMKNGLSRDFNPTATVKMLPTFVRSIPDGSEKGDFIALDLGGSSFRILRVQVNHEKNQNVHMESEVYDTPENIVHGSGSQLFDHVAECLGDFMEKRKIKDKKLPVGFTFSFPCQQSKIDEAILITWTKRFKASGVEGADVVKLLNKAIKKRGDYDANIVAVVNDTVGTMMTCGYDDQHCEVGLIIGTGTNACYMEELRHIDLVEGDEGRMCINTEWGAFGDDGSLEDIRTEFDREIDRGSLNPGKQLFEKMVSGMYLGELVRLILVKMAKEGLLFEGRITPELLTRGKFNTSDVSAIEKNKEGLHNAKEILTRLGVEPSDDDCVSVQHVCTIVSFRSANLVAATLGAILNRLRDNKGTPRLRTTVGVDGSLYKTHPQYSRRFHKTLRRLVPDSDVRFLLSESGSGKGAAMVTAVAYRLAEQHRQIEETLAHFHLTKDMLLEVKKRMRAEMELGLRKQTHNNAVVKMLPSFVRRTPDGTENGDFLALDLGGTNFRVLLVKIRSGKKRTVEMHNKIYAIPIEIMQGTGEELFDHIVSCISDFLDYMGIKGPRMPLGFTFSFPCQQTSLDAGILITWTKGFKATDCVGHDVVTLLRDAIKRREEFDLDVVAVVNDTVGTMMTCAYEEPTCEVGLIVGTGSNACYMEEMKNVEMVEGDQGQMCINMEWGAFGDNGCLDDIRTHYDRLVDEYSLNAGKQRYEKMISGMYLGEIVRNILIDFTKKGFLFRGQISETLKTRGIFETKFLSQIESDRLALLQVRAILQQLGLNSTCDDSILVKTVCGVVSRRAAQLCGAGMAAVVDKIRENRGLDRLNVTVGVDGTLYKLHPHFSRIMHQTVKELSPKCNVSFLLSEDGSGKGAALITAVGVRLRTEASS
Experimental: Then 85 μL assay mix containing 100 mM Tris HCl pH 8.0, 5 mM MgCl2, 200 mM Glucose, 0.8 mM ATP, 1 mM NAD^+, 0.25 Units of G6P-DH, was added.

[1] = Cytotoxicity test (CCK-8); type: cell-based
Experimental: (§1) Met was used as a positive control. All experiments were performed in triplicate.

HCT116 = assay: Cytotoxicity test (CCK-8); type: cell-based; settings: Homo sapiens, HCT-116; HCT116, 48 h
Experimental: as §1

Lovo = assay: Cytotoxicity test (CCK-8); type: cell-based; settings: Homo sapiens, 48 h
Experimental: as §1

MCF-7 = assay: Cytotoxicity test (CCK-8); type: cell-based; settings: Homo sapiens, MCF7; MCF-7, 48 h
Experimental: as §1

SMMC-7721 = assay: Cytotoxicity test (CCK-8); type: cell-based; settings: Homo sapiens, SMMC-7721, 48 h
Experimental: as §1

SW480 = assay: Cytotoxicity test (CCK-8); type: cell-based; settings: Homo sapiens, SW480, 48 h
Experimental: as §1

HCT116 cells = assay: Cell proliferation assay (CCK-8); type: cell-based, human; settings: 100, 200, 400 μM, 24-96 h
Experimental: (§2) HCT116 and SW480 cells were seeded at a density of 2 × 10^3 per well into 96-well plates. Cell proliferation was assessed by incubating them with Cell Counting Kit-8 reagents (Dojindo, Shanghai, China) for 24 h,48 h, 72 h, 96 h at 37 °C and measuring the absorbance at 450 nm. The experiment was performed in triplicate.

SW480 cells = assay: Cell proliferation assay (CCK-8); type: cell-based, human; settings: 100, 200, 400 μM, 24-96 h
Experimental: as §2

p-AMPKα in SW480 cells = assay: Western blot analysis; type: cell-based, human; settings: 75, 150 and 300 μM
Experimental: The harvested cells were lysed with radioimmunoprecipitation assay (RIPA) buffer (Beyotime, China). Insoluble debris was removed by centrifugation and the concentration of total proteins was determined using BCA Protein Assay Kit (Beyotime, China). Then lysate protein (20-40 μg) was subjected to 10% SDS-PAGE and electrophoretically transferred to polyvinylidene difluoride membranes (PVDF) (Millipore, USA). […] Protein bands were visualized using an enhanced chemiluminescence reagent (ECL Plus) (GE Healthcare, USA) after hybridization with a HRP conjugated secondary antibody. All experiments were performed in triplicate and analyzed by optical density.

[2] = tested on: SW480 xenograft tumor tissues; assay: TUNEL and H&E staining assay; type: in vivo; settings: versus vehicle control
Experimental: Apoptosis of tumor tissues was detected by terminal deoxynucleotidyl transferase (TdT)-mediated dUTP-biotin nick end labeling (TUNEL) stain, using an In Situ Cell Death Detection Kit (Roche, Switzerland). The hematoxylin-eosin (H&E) staining was performed to observe the pathological changes in different groups.

With NC(CO)C(=O)NNCc1ccc(O)c(O)c1O (stereo not drawn) [Benz, Benserazide] the IC50 (HK1) was 25.13 ± 0.24 µM, the IC50 at 48 h ([1]; African green monkey, Vero normal cells) was greater than 500 µM and the IC50 at 48 h ([1]; human, LO2 normal cells) was greater than 500 µM. For the same compound, the IC50 (HCT116) was 181 ± 11.5 µM, the IC50 (Lovo) was 151 ± 4.5 µM and the IC50 (MCF-7) was 186 ± 12.5 µM. For the same compound, the IC50 (SMMC-7721) was 210 ± 7.9 µM, the IC50 (SW480) was 143 ± 7 µM and the cell proliferation (HCT116 cells) was “markedly inhibited proliferation”. For the same compound, the cell proliferation (SW480 cells) was “markedly inhibited proliferation”, the “phosphorylation of AMPKα” value (p-AMPKα in SW480 cells) was “increased” and the “tumor apoptosis and pathological changes (TUNEL, H&E)” value [2] was “induced tumor apoptosis and pathological changes”.
